US11882828B2, “Mosquito vector control compositions, methods and products utilizing same” (priority 2015, dated 2024)

Columns and labels:
[1] = test system: An. Gambiae Tiassalé; assay: Example B5: bottle based cross resistance study (CDC bottle assay); format: in vivo; details: for Knockdown (%) at 15 mins / Knockdown (%) at 60 mins: 20 ppm, bottle, Tiassalé; for mortality at 20 ppm: Anopheles gambiae
Experimental: (§1) Based on the “CDC bottle assay” (described at http://www.cdc.gov/malaria/resources/pdf/fsp/ir_manual/ir_cdc_bioassay_en.pdf) 1 ml of ethanol containing a test compound at a defined concentration was added to a 250 ml glass bottle and the bottles were placed on a rolling table to coat the inner surfaces as the solvent evaporated. Once dry, twenty five non-blood fed adult female mosquitoes of the appropriate species and strains (each three day old) were aspirated from the stock culture and gently blown into the exposure bottles. The lid of the bottle was replaced and the bottle placed upright out of direct sun light under standard culture conditions, nominally 28C and 60-80% relative humidity.
(§2) A stopwatch was started, and the assessment of the knock-down were made after 15 minutes and 60 minutes. A mosquito was said to be knocked down if it was unable to stand, following the CDC definition. The bottles were replaced in an upright position when not being assessed.
(§3) After one hour the mosquitoes were carefully removed from the bottle with an aspirator and placed in a recovery cup. The mosquitoes were supplied with a 10% sucrose solution on a cotton wool bung, and stored under culture conditions. Assessments of the mortality were made after 24 hours.
(§4) Each treatment was replicated a minimum of four times, with the mean knockdown or mortality recorded. In each study, a set of bottles was infested with a known insecticide susceptible strain of mosquitoes from the same genera as the resistant strains.

[2] = test system: An. stephensi; assay: as above; format: in vivo; details: for Knockdown (%) at 15 mins / Knockdown (%) at 60 mins: 20 ppm, bottle, An. stephensi; for mortality at 20 ppm: Anopheles stephensi
Experimental: as §1, §2, §3, §4

[3] = test system: An. Gambiae Kisumu sus; assay: as above; format: in vivo; details: for mortality at 20 ppm / mortality at 25 ppm: Anopheles gambiae; for mortality at 25 ppm: 24 h
Experimental: as §1, §2, §3, §4

[4] = test system: Anopheles stephensi (Indian malaria mosquito); assay: whole plant or invertebrate; details: Anopheles stephensi
Experimental: […] Once the deposits were dry, five non-blood fed adult female Anopheles stephensi (between two to five days old) were added to each well, and sustained with a 10% sucrose solution in a cotton wool plug. Assessment of the knockdown after 1 hour, and mortality after 48 hours was carried out.
(§5) In case of multiple tests, the mean value is reported.

[5] = test system: An. Gambiae Tiassalé; assay: Example B4: cross resistance study, 6-well plate; format: in vivo; details: for Knockdown: after 60 minutes, Tiassalé
Experimental: (§6) In each study, a set of plates were infested with a known insecticide susceptible strain of mosquitoes from the same genera as the resistant strains.
(§7) Assessment of the knockdown after 60 minutes and mortality after 24 hours was carried out. Each treatment was replicated a minimum of four times, with the mean knockdown or mortality recorded.
(§8) A comparison of the knockdown and mortality of the resistant strain of mosquitoes was made to that of the susceptible to identify evidence of cross resistance.

[6] = test system: Ae. Aegypti New Orleans; assay: Example B4: cross resistance study, 6-well plate; format: in vivo; details: for Knockdown: after 60 minutes, New Orleans
Experimental: as §6, §7, §8

[7] = test system: An. stephensi; assay: Example B4: cross resistance study, 6-well plate; format: in vivo; details: for Knockdown: after 60 minutes, An. stephensi
Experimental: as §6, §7, §8

[8] = test system: An. Arabiensis Moz sus; assay: Example B4: cross resistance study, 6-well plate; format: in vivo; details: for Knockdown: after 60 minutes, Moz sus
Experimental: as §6, §7, §8

[9] = test system: An. Arabiensis Ndjamina; assay: Example B4: cross resistance study, 6-well plate; format: in vivo
Experimental: as §6, §7, §8

[10] = test system: An. Gambiae Kisumu sus; assay: Example B4: cross resistance study, 6-well plate; format: in vivo; details: for Knockdown: after 60 minutes, Kisumu sus
Experimental: as §6, §7, §8

[11] = test system: An. Gambiae Kisumu rdl; assay: Example B4: cross resistance study, 6-well plate; format: in vivo; details: for Knockdown: after 60 minutes, Kisumu rdl
Experimental: as §6, §7, §8

[12] = test system: Ae. aegypti Caymon; assay: Example B4: cross resistance study, 6-well plate; format: in vivo; details: for Knockdown: after 60 minutes, Caymon
Experimental: as §6, §7, §8

[13] = test system: Anopheles stephensi; assay: Example B7: evaluation of insecticide impregnated polymer surfaces; format: in vivo; details: AI content 2 wt %; for knock-down: after one hour; for mortality: 24 hours after exposure
From the text: (§9) Preparation of polymeric sheets: Certain methoxyacrylate were Impregnated into three polymers: LDPE (low density polyethylene), HDPE (high density polyethylene) and PP (polypropylene) in different concentrations by mixing the respective polymer with a compound at high temperatures and the resultant polymeric material were then mould into thin discs or plaques.
(§10) Twenty four hours prior to the relevant assessment intervals, three to five day old non-blood fed adult mosquitoes were taken from the culture and lightly anaesthetised with carbon dioxide. Ten females were selected and placed in a 250 ml plastic cup, retained with a net lid, provided with a 10% sucrose solution soaked in a cotton wool bung and held under culturing environmental conditions.
(§11) After twenty four hours, impregnated polymer sheets (measuring about 150 mm in diameter and about 0.1 mm in thickness) were removed from storage and wrapped around the glazed side of an 11 cm ceramic tile and held in place with an elastic band. A cup of the pre-selected mosquitoes were again lightly anaesthetised with carbon dioxide and transferred from the holding cup to the base of a 9 cm plastic Petri dish. The relevant impregnated polymer sheet was placed over the Petri dish and held in place with an elastic band. Once the mosquitoes had recovered from the anaesthetic, ca. 1 minute, the impregnated polymer sheet was placed on a holding rack, such that treated side was at an angle of […] to the horizontal.
(§12) After one hour an assessment of mosquito knockdown was made. A mosquito was said to be knocked down if it was unable to right itself once it had fallen over. The mosquitoes were lightly anaesthetised again, and removed from the Petri dish exposure chamber and returned to the holding cups. The mosquitoes were supplied with a 10% sucrose solution soaked in a cotton wool bung and held under culturing environmental conditions. An assessment of mortality was made 24 hours after exposure. A mosquito was said to be dead if it is unable to right itself once it had fallen over.

[14] = test system: Aedes aegypti; assay: as above; format: in vivo; details: AI content 2 wt %, polymer 4 to 6 weeks old; for knock-down: after one hour; for mortality: 24 hours after exposure
From the text: as §9, §10, §11, §12

[15] = test system: Aedes aegypti (Yellow fever mosquito); assay: whole plant or invertebrate; details: Aedes aegypti
Experimental: […] Once the deposits were dry, five non-blood fed adult female Aedes aegypti (between two to five days old) were added to each well, and sustained with a 10% sucrose solution in a cotton wool plug. Assessment of the knockdown after 1 hour, and mortality after 48 hours was carried out.
as §5

[16] = test system: Anopheles stephensi; assay: whole plant or invertebrate; details: Anopheles stephensi, 48 h
Experimental: (§13) The individual wells of six (6) well tissue culture plates were treated with 250 μl of an ethanol solution containing a test compound at a defined concentration. Once the deposits were dry, ten non-blood fed adult female Aedes aegypti or Anopheles stephensi (each between two to five day old) were added to each well, and sustained with a 10% sucrose solution in a cotton wool plug.
(§14) Assessment of the mortality was carried out at 48 hours.
(§15) Each treatment was replicated twice, with the mean mortality recorded.

[17] = test system: Aedes aegypti; assay: whole plant or invertebrate; details: Aedes aegypti, 48 h
Experimental: as §13, §14, §15

[18] = test system: FUMOZ; assay: Example B5: bottle based cross resistance study (CDC bottle assay); format: in vivo; details: Anopheles funestus, 24 h, 25 ppm, after 24 hours, FUMOZ
Experimental: as §1, §2, §3, §4

[19] = test system: VK7; assay: as above; format: in vivo; details: Anopheles coluzzii, 24 h, after 24 hours
Experimental: as §1, §2, §3, §4

In the case of `CO/C=C(/C(=O)OC)c1ccccc1Oc1nnc(C(F)(F)F)s1` [Compound 6, Methyl (E)-3-methoxy-2-[2-[[5-(trifluoromethyl)-1,3,4-thiadiazol-2-yl]oxy]phenyl]-prop-2-enoate], the “Knockdown (%) at 15 mins” value [1] is reported as 93%, the “Knockdown (%) at 60 mins” value [1] is reported as 98% and the mortality at 20 ppm [1] is reported as 91%. For the same molecule, the “Knockdown (%) at 15 mins” value [2] was 83%, the “Knockdown (%) at 60 mins” value [2] was 100% and the mortality at 20 ppm [2] was 100%. For the same molecule, the “Knockdown (%) at 15 mins” value ([3]; 20 ppm, bottle, Kisumu sus) was 100%, the “Knockdown (%) at 60 mins” value ([3]; 20 ppm, bottle, Kisumu sus) was 100% and the mortality at 20 ppm [3] was 100%. The pest or weed control at 20 ppm ([4]; 1 h, read-out: Knockdown) was 100%, the mortality at 20 ppm ([4]; 48 h) was 100% and the Knockdown ([5]; 2.00 ppm) was 84%. The mortality at 2 ppm ([5]; Anopheles gambiae, 24 h) was 94%, the Knockdown ([6]; 2.00 ppm) was 95% and the mortality at 2 ppm ([6]; Aedes aegypti, 24 h) was 100%. The Knockdown ([7]; 2.00 ppm) was 100%, the mortality at 2 ppm ([7]; Anopheles stephensi, 24 h) was 100% and the Knockdown ([8]; 2.00 ppm) was 90%. The mortality at 2 ppm ([8]; Anopheles arabiensis, 24 h) was 100%, the Knockdown ([9]; 2.00 ppm, after 60 minutes, Ndjamina) was 100% and the mortality at 2 ppm ([9]; Anopheles arabiensis, 24 h) was 100%. For the same molecule, the Knockdown ([10]; 2.00 ppm) was 86%, the mortality at 2 ppm ([10]; Anopheles gambiae, 24 h) was 100% and the Knockdown ([11]; 2.00 ppm) was 78%. For the same molecule, the mortality at 2 ppm ([11]; Anopheles gambiae, 24 h) was 89%, the Knockdown ([12]; 2.00 ppm) was 5% and the mortality at 2 ppm ([12]; Aedes aegypti, 24 h) was 63%. It also gave a knock-down ([13]; HDPE, polymer 4 to 6 weeks old) of 87%, a knock-down ([13]; HDPE, polymer 6 to 8 weeks old) of 100% and a knock-down ([13]; LDPE, polymer 4 to 6 weeks old) of 97%. The knock-down ([13]; LDPE, polymer 6 to 8 weeks old) was 100%, the knock-down ([13]; PP, polymer 4 to 6 weeks old) was 100% and the knock-down ([13]; PP, polymer 6 to 8 weeks old) was 90%. The knock-down ([14]; HDPE) was 87%, the knock-down ([14]; LDPE) was 100% and the knock-down ([14]; PP) was 83%. The pest or weed control at 20 ppm ([15]; 1 h, read-out: Knockdown) was 100%, the mortality at 20 ppm ([15]; 48 h) was 100% and the mortality at 5 ppm [16] was 98%. For the same molecule, the mortality at 5 ppm [17] was 66%.

In the case of `CC1(C)C(C=C(Cl)Cl)C1C(=O)OCc1cccc(Oc2ccccc2)c1` (stereo not drawn) [Permethrin, reference compound], the “Knockdown (%) at 15 mins” value [1] is reported as 50%, the “Knockdown (%) at 60 mins” value [1] is reported as 99% and the mortality at 20 ppm [1] is reported as 85%. The “Knockdown (%) at 15 mins” value [2] was 97%, the “Knockdown (%) at 60 mins” value [2] was 100% and the mortality at 20 ppm [2] was 100%. For the same molecule, the mortality at 25 ppm ([18]; Table B5b) was 24%, the mortality at 25 ppm ([18]; Table B5c) was 46% and the “Knockdown (%) at 15 mins” value ([3]; 20 ppm, bottle, Kisumu sus) was 100%. For the same molecule, the “Knockdown (%) at 60 mins” value ([3]; 20 ppm, bottle, Kisumu sus) was 100%, the mortality at 20 ppm ([3]; 20 ppm, bottle, one hour exposure, after 24 hours, Kisumu sus) was 100% and the mortality at 25 ppm ([3]; Table B5b, after 24 hours, Kisumu sus) was 99%. It also gave a mortality at 25 ppm ([3]; Table B5c, after 24 hours, Kisumu sus) of 100%, a mortality at 25 ppm ([19]; Table B5b) of 3% and a mortality at 25 ppm ([19]; Table B5c) of 4%. For the same molecule, the Knockdown ([5]; 2.50 ppm) was 5%, the mortality at 2.5 ppm ([5]; Anopheles gambiae, 24 h) was 14% and the Knockdown ([6]; 2.50 ppm) was 91%. For the same molecule, the mortality at 2.5 ppm ([6]; Aedes aegypti, 24 h) was 100%, the Knockdown ([7]; 2.50 ppm) was 85% and the mortality at 2.5 ppm ([7]; Anopheles stephensi, 24 h) was 100%. For the same molecule, the Knockdown ([8]; 2.50 ppm) was 75%, the mortality at 2.5 ppm ([8]; Anopheles arabiensis, 24 h) was 100% and the Knockdown ([10]; 2.50 ppm) was 100%. For the same molecule, the mortality at 2.5 ppm ([10]; Anopheles gambiae, 24 h) was 100%, the Knockdown ([11]; 2.50 ppm) was 100% and the mortality at 2.5 ppm ([11]; Anopheles gambiae, 24 h) was 100%. It also gave a Knockdown ([12]; 2.50 ppm) of 0%, a mortality at 2.5 ppm ([12]; Aedes aegypti, 24 h) of 45% and a mortality ([13]; HDPE, polymer 4 to 6 weeks old) of 70%. The knock-down ([13]; HDPE, polymer 4 to 6 weeks old) was 100%, the mortality ([13]; HDPE, polymer 6 to 8 weeks old) was 97% and the knock-down ([13]; HDPE, polymer 6 to 8 weeks old) was 100%. The mortality ([13]; LDPE, polymer 4 to 6 weeks old) was 100%, the knock-down ([13]; LDPE, polymer 4 to 6 weeks old) was 100% and the mortality ([13]; LDPE, polymer 6 to 8 weeks old) was 100%. For the same molecule, the knock-down ([13]; LDPE, polymer 6 to 8 weeks old) was 100%, the mortality ([13]; PP, polymer 4 to 6 weeks old) was 23% and the knock-down ([13]; PP, polymer 4 to 6 weeks old) was 100%. It also gave a mortality ([13]; PP, polymer 6 to 8 weeks old) of 67%, a knock-down ([13]; PP, polymer 6 to 8 weeks old) of 100% and a mortality ([14]; HDPE) of 97%. The knock-down ([14]; HDPE) was 100%, the mortality ([14]; LDPE) was 100% and the knock-down ([14]; LDPE) was 100%. For the same molecule, the mortality ([14]; PP) was 80% and the knock-down ([14]; PP) was 87%.
